Toxic doses and inconclusive results are not listed. Cut-off read from the data, not from the text of the source: active = T/C of 150% or more; inactive = T/C below 125%.
Tested on: L1210 leukemia ip in BDF1 mice, survival T/C
Assay: NCI In Vivo Anticancer Drug Screen. Data for tumor model L1210 Leukemia (intraperitoneal) in B6D2F1 (BDF1) mice
Conditions: endpoint: mean survival time, higher = longer survival
Summary of the method: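 Mice bearing the transplanted tumor received compound or vehicle. Survival of the treated group was divided by that of the vehicle-treated control group to give the ratio.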

[1] = dose: 100.0 mg/kg/injection, schedule: Q01DX009 (ip), vehicle: saline with Tween-80
[2] = dose: 200.0 mg/kg/injection, schedule: Q01DX009 (ip), vehicle: saline with Tween-80
[3] = dose: 400.0 mg/kg/injection, schedule: Q01DX009 (ip), vehicle: saline with Tween-80
[4] = dose: 100.0 mg/kg/injection, schedule: Q04DX003 (ip), vehicle: saline with Tween-80
[5] = dose: 200.0 mg/kg/injection, schedule: Q04DX003 (ip), vehicle: saline with Tween-80
[6] = dose: 400.0 mg/kg/injection, schedule: Q04DX003 (ip), vehicle: saline with Tween-80
[7] = dose: 100.0 mg/kg/injection, schedule: Q01DX001 (ip), vehicle: saline
[8] = dose: 200.0 mg/kg/injection, schedule: Q01DX001 (ip), vehicle: saline
[9] = dose: 400.0 mg/kg/injection, schedule: Q01DX001 (ip), vehicle: saline
[10] = dose: 50.0 mg/kg/injection, schedule: Q01DX001 (ip), vehicle: saline

Measured: T/C

CC/C=C(\CC(=O)OCC)C(=O)OCC
inactive: [1] 101 % of control | [2] 96 % of control | [3] 92 % of control

CCOC(=O)NC(NC(=O)OCC)c1ccco1
inactive: dose: 100.0 mg/kg/injection, schedule: Q01DX001 (ip), vehicle: other 98 % of control | dose: 200.0 mg/kg/injection, schedule: Q01DX001 (ip), vehicle: other 98 % of control | dose: 400.0 mg/kg/injection, schedule: Q01DX001 (ip), vehicle: other 89 % of control

O=[N+]([O-])c1ccc(C(=Nc2ccccc2)Nc2ccccc2)cc1
inactive: [4] 101 % of control | [5] 98 % of control | [6] 98 % of control

COc1cc(/C=C2/SC(=S)NC2=O)cc(OC)c1OC
inactive: [1] 96 % of control | [4] 100 % of control | [2] 92 % of control | [5] 100 % of control | [3] 97 % of control | [6] 117 % of control

CCOC(=O)CC(=O)CC(C)C
inactive: dose: 100.0 mg/kg/injection, schedule: Q04DX003 (ip), vehicle: Klucel (hydroxypropylcellulose) (HPC) 101 % of control | dose: 200.0 mg/kg/injection, schedule: Q04DX003 (ip), vehicle: Klucel (hydroxypropylcellulose) (HPC) 97 % of control | dose: 400.0 mg/kg/injection, schedule: Q04DX003 (ip), vehicle: Klucel (hydroxypropylcellulose) (HPC) 88 % of control

c1ccc2c[n+]3cc4ccccc4cc3cc2c1
inactive: dose: 6.25 mg/kg/injection, schedule: Q01DX009 (ip), vehicle: saline 101 % of control | dose: 12.5 mg/kg/injection, schedule: Q01DX009 (ip), vehicle: saline 104 % of control | dose: 25.0 mg/kg/injection, schedule: Q01DX009 (ip), vehicle: saline 104 % of control | dose: 35.0 mg/kg/injection, schedule: Q01DX009 (ip), vehicle: saline 95 % of control

CC(=O)Nc1nc(SCc2ccccc2)c2c(no[n+]2[O-])n1
inactive: dose: 100.0 mg/kg/injection, schedule: Q04DX002 (ip), vehicle: saline with Tween-80 97 % of control | dose: 200.0 mg/kg/injection, schedule: Q04DX002 (ip), vehicle: saline with Tween-80 116 % of control

CN(C)N=Nc1ccc(Cl)cc1
inactive: dose: 37.5 mg/kg/injection, schedule: Q04DX003 (ip), vehicle: saline with Tween-80 96 % of control | dose: 50.0 mg/kg/injection, schedule: Q01DX001 (ip), vehicle: saline with Tween-80 106 % of control | dose: 50.0 mg/kg/injection, schedule: Q01DX009 (ip), vehicle: saline with Tween-80 86 % of control | dose: 75.0 mg/kg/injection, schedule: Q04DX003 (ip), vehicle: saline with Tween-80 97 % of control | dose: 100.0 mg/kg/injection, schedule: Q01DX001 (ip), vehicle: saline with Tween-80 104 % of control | [7] 103 % of control | [1] 87 % of control | dose: 150.0 mg/kg/injection, schedule: Q04DX003 (ip), vehicle: saline with Tween-80 104 % of control | dose: 200.0 mg/kg/injection, schedule: Q01DX001 (ip), vehicle: saline with Tween-80 113 % of control | [8] 107 % of control | [2] 90 % of control | dose: 300.0 mg/kg/injection, schedule: Q04DX003 (ip), vehicle: saline with Tween-80 108 % of control | [9] 97 % of control | [3] 91 % of control

CC1=CC(=O)C(C(O)(C(F)(F)Cl)C(F)(F)Cl)C(C)(C)C1 (centres undefined)
inactive: dose: 100.0 mg/kg/injection, schedule: Q01DX009 (ip), vehicle: Klucel (hydroxypropylcellulose) (HPC) 98 % of control | [4] 102 % of control | dose: 200.0 mg/kg/injection, schedule: Q01DX009 (ip), vehicle: Klucel (hydroxypropylcellulose) (HPC) 103 % of control | [5] 96 % of control | dose: 400.0 mg/kg/injection, schedule: Q01DX009 (ip), vehicle: Klucel (hydroxypropylcellulose) (HPC) 97 % of control | [6] 109 % of control

NC(=O)c1cc(Cl)nc(Cl)n1
inactive: dose: 25.0 mg/kg/injection, schedule: Q01DX Z (ip), vehicle: methylcellulose (MC) 98 % of control | dose: 50.0 mg/kg/injection, schedule: Q01DX Z (ip), vehicle: methylcellulose (MC) 96 % of control

CCOC(=O)C1C(CCCCO)CC(=O)CC1(C)C(N)=O (centres undefined)
inactive: [7] 97 % of control | [8] 91 % of control | [9] 95 % of control

COc1cc(N)c(CC2c3cc(OC)c(OC)cc3CCN2C)cc1OC (centres undefined)
inactive: dose: 75.0 mg/kg/injection, schedule: Q01DX001 (ip), vehicle: carboxymethylcellulose (CMC) 95 % of control | dose: 150.0 mg/kg/injection, schedule: Q01DX001 (ip), vehicle: carboxymethylcellulose (CMC) 95 % of control

COc1cccc(N=CN(C)C)c1
inactive: [10] 90 % of control | [7] 104 % of control

CCOC(=O)c1cnc(SC)nc1Nc1ccc(Cl)c(Cl)c1
inactive: dose: 100.0 mg/kg/injection, schedule: Q01DX001 (ip), vehicle: Klucel (hydroxypropylcellulose) (HPC) 97 % of control | dose: 200.0 mg/kg/injection, schedule: Q01DX001 (ip), vehicle: Klucel (hydroxypropylcellulose) (HPC) 96 % of control | dose: 400.0 mg/kg/injection, schedule: Q01DX001 (ip), vehicle: Klucel (hydroxypropylcellulose) (HPC) 97 % of control

CN(C)c1ccc(-c2c3cc(O)c(=O)cc-3oc3cc(O)c(O)cc23)cc1
inactive: dose: 50.0 mg/kg/injection, schedule: Q04DX003 (ip), vehicle: saline with Tween-80 95 % of control | [4] 90 % of control | [5] 87 % of control

CC(=O)C1=CC(=O)c2ccccc2C1=O
inactive: dose: 20.0 mg/kg/injection, schedule: Q01DX001 (ip), vehicle: water 103 % of control | dose: 40.0 mg/kg/injection, schedule: Q01DX001 (ip), vehicle: water 95 % of control | dose: 80.0 mg/kg/injection, schedule: Q01DX001 (ip), vehicle: water 93 % of control

Brc1cccc[n+]1-c1cc(-[n+]2ccccc2Br)cc(-[n+]2ccccc2Br)c1
inactive: dose: 1.17 mg/kg/injection, schedule: Q01DX001 (ip), vehicle: other 95 % of control | dose: 2.34 mg/kg/injection, schedule: Q01DX001 (ip), vehicle: other 102 % of control | dose: 4.69 mg/kg/injection, schedule: Q01DX001 (ip), vehicle: other 101 % of control

O=C(O)c1ccc(/C=N/N=C2c3ccccc3-c3ccccc32)cc1
inactive: dose: 75.0 mg/kg/injection, schedule: Q01DX001 (ip), vehicle: other 91 % of control | dose: 150.0 mg/kg/injection, schedule: Q01DX001 (ip), vehicle: other 86 % of control | dose: 300.0 mg/kg/injection, schedule: Q01DX001 (ip), vehicle: other 95 % of control

O=C(O)COc1cc(Cl)c(Cl)cc1Cl (tested in a mixture with another compound)
inactive: dose: 25.0 mg/kg/injection, schedule: Q01DX001 (ip), vehicle: saline 110 % of control | [10] 93 % of control

CN(C)c1ccc(C(=C2C=CC(=[N+](C)C)C=C2)c2ccc(N(C)C)cc2)cc1
inactive: [7] 97 % of control | [8] 105 % of control

CC1=NCCC[N-]CC[N-]CCCN=C1C.[Ni+2].[O-][Cl+3]([O-])([O-])O
inactive: dose: 100.0 mg/kg/injection, schedule: Q04DX002 (ip), vehicle: saline 94 % of control | dose: 200.0 mg/kg/injection, schedule: Q04DX002 (ip), vehicle: saline 94 % of control | dose: 400.0 mg/kg/injection, schedule: Q04DX002 (ip), vehicle: saline 98 % of control

CSc1nc(N)c(N=Nc2ccc(S(=O)(=O)Nc3cc(C)nc(C)n3)cc2)c(=O)[nH]1
inactive: dose: 100.0 mg/kg/injection, schedule: Q01DX001 (ip), vehicle: carboxymethylcellulose (CMC) 103 % of control | dose: 200.0 mg/kg/injection, schedule: Q01DX001 (ip), vehicle: carboxymethylcellulose (CMC) 95 % of control | dose: 400.0 mg/kg/injection, schedule: Q01DX001 (ip), vehicle: carboxymethylcellulose (CMC) 97 % of control

Cc1ccc(C(CC(=O)O)CC(=O)O)c(O)c1
inactive: dose: 100.0 mg/kg/injection, schedule: Q01DX009 (ip), vehicle: gum acacia 96 % of control | dose: 100.0 mg/kg/injection, schedule: Q04DX003 (ip), vehicle: gum acacia 95 % of control | dose: 200.0 mg/kg/injection, schedule: Q01DX009 (ip), vehicle: gum acacia 93 % of control | dose: 200.0 mg/kg/injection, schedule: Q04DX003 (ip), vehicle: gum acacia 93 % of control | dose: 400.0 mg/kg/injection, schedule: Q01DX009 (ip), vehicle: gum acacia 88 % of control | dose: 400.0 mg/kg/injection, schedule: Q04DX003 (ip), vehicle: gum acacia 90 % of control

Source: PubChem BioAssay AID248 (DTP/NCI, 2004)
